Reference: ChEMBL document CHEMBL1201862, “PubChem BioAssay data set” (2004)
Where “and” joins values, the source holds several entries; their conditions need not be identical. Equal entries are not always repeated.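 48-hour exposure; five concentrations; linearly interpolated endpoints. GI50 is the concentration that inhibits growth by half.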 Calls of active or inactive are those of the source. Cut-off read from the data, not from the text of the source: active = GI50 up to about 1.1 µM and inactive = higher.

Tests used:
Experiment in all cases: growth of human tumour cells (NCI), 48 h
LOX IMVI = test system: LOX IMVI
Hs-578T = test system: Hs-578T
K562 = test system: K562
NCI/ADR-RES = test system: NCI/ADR-RES
TK-10 = test system: TK-10
SNB-19 = test system: SNB-19
DU-145 = test system: DU-145
UACC-257 = test system: UACC-257
COLO 205 = test system: COLO 205
HOP-92 = test system: HOP-92
PC-3 = test system: PC-3
SK-MEL-2 = test system: SK-MEL-2
RPMI-8226 = test system: RPMI-8226
MDA-MB-435 = test system: MDA-MB-435
SF-268 = test system: SF-268
OVCAR-4 = test system: OVCAR-4
SK-MEL-28 = test system: SK-MEL-28
CCRF-CEM = test system: CCRF-CEM
SR = test system: SR
HOP-62 = test system: HOP-62

SMILES | GI50 (LOX IMVI) | GI50 (Hs-578T) | GI50 (K562) | GI50 (NCI/ADR-RES) | GI50 (TK-10) | GI50 (SNB-19) | GI50 (DU-145) | GI50 (UACC-257) | GI50 (COLO 205) | GI50 (HOP-92) | GI50 (PC-3) | GI50 (SK-MEL-2) | GI50 (RPMI-8226) | GI50 (MDA-MB-435) | GI50 (SF-268) | GI50 (OVCAR-4) | GI50 (SK-MEL-28) | GI50 (CCRF-CEM) | GI50 (SR) | GI50 (HOP-62)
COc1cc(OC)cc(-n2c(N)c(-c3nc4ccccc4n3C)c3ccc([N+](=O)[O-])cc3c2=O)c1 | > 100 µM (inactive) | 26.4 µM (inactive) | > 100 µM (inactive) | 33.8 µM (inactive) | > 100 µM (inactive) | 40.6 µM (inactive) | > 100 µM (inactive) | > 100 µM (inactive) | > 100 µM (inactive) | 18600 nM (inactive) | > 100 µM (inactive) | > 100 µM (inactive) | > 100 µM (inactive) | > 100 µM (inactive) | 55.5 µM (inactive) | 28.2 µM (inactive) | > 100 µM (inactive) | – | – | –
COc1ccc(-n2cnn3c(=O)c4cn[nH]c4nc23)cc1 | > 10 µM (inactive) | > 10 µM (inactive) | > 10 µM (inactive) | – | > 10 µM (inactive) | > 10 µM (inactive) | > 10 µM (inactive) | > 10 µM (inactive) | – | 748 nM (active) | > 10 µM (inactive) | – | – | > 10 µM (inactive) | > 10 µM (inactive) | > 10 µM (inactive) | – | > 10 µM (inactive) | > 10 µM (inactive) | –
Cc1nn(-c2ccccc2)c(C)c1/C=N/N=C1\SCC(=O)N1c1ccccc1 | 22.6 µM (inactive) | 37.2 µM (inactive) | 25.8 µM (inactive) | 18.5 µM (inactive) | 26.2 µM (inactive) | 43.1 µM (inactive) | 31.8 µM (inactive) | 32.4 µM (inactive) | 14.9 µM (inactive) | – | 19.2 µM (inactive) | 25.7 µM (inactive) | 13.4 µM (inactive) | 20.5 µM (inactive) | 28.4 µM (inactive) | 10.6 µM (inactive) | 22.3 µM (inactive) | 25 µM (inactive) | 25.1 µM (inactive) | 37.9 µM (inactive)
CCOC(=O)C(NC(=O)Nc1ccc(Cl)cc1)(OC)C(F)(F)F (centres undefined) | > 100 µM (inactive) | 42.4 µM (inactive) | 0.832 µM (active) | 4.66 µM (inactive) | 30.7 µM (inactive) | 22.2 µM (inactive) | – | 21.9 µM (inactive) | 12.2 µM (inactive) | – | 32.3 µM (inactive) | 0.973 µM (active) | – | 3.25 µM (inactive) | 27.7 µM (inactive) | – | > 100 µM (inactive) | – | 9.23 µM (inactive) | –
COc1nc2ncc([C@@H](OC(C)=O)[C@@H](COC(C)=O)OC(C)=O)nc2c(=O)[nH]1 | > 100 µM (inactive) | > 100 µM (inactive) | > 100 µM (inactive) | > 100 µM (inactive) | > 100 µM (inactive) | > 100 µM (inactive) | > 100 µM (inactive) | > 100 µM (inactive) | > 100 µM (inactive) | – | > 100 µM (inactive) | > 100 µM (inactive) | > 100 µM (inactive) | > 100 µM (inactive) | > 100 µM (inactive) and 83.4 µM (inactive) | > 100 µM (inactive) | > 100 µM (inactive) | > 100 µM (inactive) | – | > 100 µM (inactive)
Cc1cc(C)nc(SCCc2cccc[n+]2C)n1 | > 100 µM (inactive) | > 100 µM (inactive) | > 100 µM (inactive) | > 100 µM (inactive) | > 100 µM (inactive) | > 100 µM (inactive) | > 100 µM (inactive) | > 100 µM (inactive) | > 100 µM (inactive) | > 100000 nM (inactive) | > 100 µM (inactive) | – | > 100 µM (inactive) | > 100 µM (inactive) | > 100 µM (inactive) | > 100 µM (inactive) | > 100 µM (inactive) | > 100 µM (inactive) | – | > 100 µM (inactive)
CC1CC/C(=C\c2ccc(F)cc2)C2=C1C(c1ccc(F)cc1)N1C(=O)CSC1=N2 (centres undefined) | 44 µM (inactive) | > 100 µM (inactive) | 21.9 µM (inactive) | 49.9 µM (inactive) | > 100 µM (inactive) | > 100 µM (inactive) | > 100 µM (inactive) | 62.1 µM (inactive) | > 100 µM (inactive) | – | 25.6 µM (inactive) | > 100 µM (inactive) | 15.5 µM (inactive) | 91 µM (inactive) | > 100 µM (inactive) | – | > 100 µM (inactive) | 41.2 µM (inactive) | – | –
Nc1nc2cc(CNc3ccc(C(=O)O)cc3)ccc2nc1-c1ccccc1 | 54.2 µM (inactive) | > 100 µM (inactive) | > 100 µM (inactive) | > 100 µM (inactive) | > 100 µM (inactive) | > 100 µM (inactive) | 44.6 µM (inactive) | > 100 µM (inactive) | > 100 µM (inactive) | – | > 100 µM (inactive) | > 100 µM (inactive) | > 100 µM (inactive) | > 100 µM (inactive) | > 100 µM (inactive) | > 100 µM (inactive) | > 100 µM (inactive) | > 100 µM (inactive) | > 100 µM (inactive) | > 100 µM (inactive)
CC(CN1NC12CCCC2)N1NC12CCCC2 (centres undefined) | > 100 µM (inactive) | > 100 µM (inactive) | > 100 µM (inactive) | > 100 µM (inactive) | > 100 µM (inactive) | > 100 µM (inactive) | > 100 µM (inactive) | 60.8 µM (inactive) | > 100 µM (inactive) | > 100000 nM (inactive) | > 100 µM (inactive) | > 100 µM (inactive) | > 100 µM (inactive) | > 100 µM (inactive) | > 100 µM (inactive) | > 100 µM (inactive) | > 100 µM (inactive) | > 100 µM (inactive) | – | > 100 µM (inactive)
O=C(/C=C(\O)c1cc(-c2ccccc2)n(-c2ccccc2)n1)c1ccccc1 | 4.37 µM (inactive) | 14.7 µM (inactive) | 3.46 µM (inactive) | 5.38 µM (inactive) | 4.46 µM (inactive) | 5.97 µM (inactive) | 3.61 µM (inactive) | 59.4 µM (inactive) | 4.69 µM (inactive) | – | 9.29 µM (inactive) | 13.4 µM (inactive) | 1.8 µM (inactive) | 3.78 µM (inactive) | 24.2 µM (inactive) | – | 0.631 µM (active) | 1.24 µM (inactive) | 1.12 µM (active) | 3.46 µM (inactive)
COC(O)C(=O)c1ccc2c(c1)CC1(C2)Cc2cc3c(cc2C1=O)CCC3 (centres undefined) | 2.69 µM (inactive) | 20.5 µM (inactive) | 2.94 µM (inactive) | 42.6 µM (inactive) | 21.6 µM (inactive) | 18.2 µM (inactive) | 17.1 µM (inactive) | 21.4 µM (inactive) | 20 µM (inactive) | – | 14.9 µM (inactive) | 23.2 µM (inactive) | 12.3 µM (inactive) | 17.1 µM (inactive) | 19.4 µM (inactive) | 16.1 µM (inactive) | 15.1 µM (inactive) | 11.9 µM (inactive) | > 10 µM (inactive) | 19.5 µM (inactive)
O=C(NNc1nc(-c2ccccc2)cs1)C(F)(F)F | 57.7 µM (inactive) | 15.9 µM (inactive) | 25 µM (inactive) | 29.9 µM (inactive) | – | 63.8 µM (inactive) | 53.1 µM (inactive) | 44.3 µM (inactive) | 35.8 µM (inactive) | – | 37.8 µM (inactive) | 36.3 µM (inactive) | 16.4 µM (inactive) | 34 µM (inactive) | 29.6 µM (inactive) | > 100 µM (inactive) | 25.8 µM (inactive) | 24.9 µM (inactive) | 33.4 µM (inactive) | 33.2 µM (inactive)
COc1ccc2[nH]c(C(=O)N3CC(CCl)c4ccc(N)cc43)cc2c1 (centres undefined) | 0.177 µM (active) | 0.335 µM (active) | 0.128 µM (active) | 0.0912 µM (active) | 0.37 µM (active) | 0.586 µM (active) | 0.0551 µM (active) | 0.241 µM (active) | 0.2 µM (active) | 634 nM (active) | 0.233 µM (active) | 0.199 µM (active) | 0.361 µM (active) | 0.264 µM (active) | 0.0491 µM (active) | 0.163 µM (active) | 0.368 µM (active) | 0.17 µM (active) | – | 0.327 µM (active)
COc1ccc2[nH]c3ccc4cc[n+](CCN5CCC(C6CCN(CC[n+]7ccc8ccc9[nH]c%10ccc(OC)cc%10c9c8c7)CC6)CC5)cc4c3c2c1 | – | 33 µM (inactive) | 0.228 µM (active) | 19.5 µM (inactive) | 21.4 µM (inactive) | 1.38 µM (inactive) | 21.4 µM (inactive) | 35.2 µM (inactive) | – | 303 nM (active) | 31 µM (inactive) | > 52.7 µM (inactive) | – | > 50 µM (inactive) | 1.97 µM (inactive) | 7.29 µM (inactive) | 1.88 µM (inactive) | 0.274 µM (active) | 0.117 µM (active) | > 40.6 µM (inactive)
Cc1csc2nc(-c3ccc([N+](=O)[O-])cc3)c(/C=N/N=C(N)N)n12 | 1.9 µM (inactive) | 2.09 µM (inactive) | 1.81 µM (inactive) | 6.89 µM (inactive) | 1.92 µM (inactive) | 1.92 µM (inactive) | 2.21 µM (inactive) | 1.91 µM (inactive) | 1.53 µM (inactive) | < 10 nM (active) | 1.69 µM (inactive) | 1.43 µM (inactive) | 2.05 µM (inactive) | 1.64 µM (inactive) | 1.68 µM (inactive) | 1.53 µM (inactive) | 1.74 µM (inactive) | 1.91 µM (inactive) | – | 1.7 µM (inactive)
